Measurements taken from patent US9902696B2, “1,4-substituted piperidine derivatives” (Cephalon, Inc., priority 2015, dated 2018).
Where a name gives a salt, the structure may show the parent alone. Read-outs that look alike come from different tables or passages of the source.

Target: T1, recombinant human baculovirus-expressed GST-tagged FASN (Homo sapiens, UniProt P49327)
T1 construct: GST
Test: FASN enzyme activity assay, fluorescence-based detection of CoA with CPM
Type: biochemical
Details: 5 nM FASN, 150 μM NADPH, 10 μM acetyl-CoA, 25 μM malonyl-CoA, 90 minutes incubation
Outline: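 CoA product reacted with thiol-reactive CPM (diluted to 50 μM in 70% ethanol), read at 390/530 nm after 30 min. Preceding reaction: 90 min, 5 nM recombinant GST-FASN, 150 μM NADPH, 10 μM acetyl-CoA, 25 μM malonyl-CoA, pH 7.5 HEPES, 0.5% DMSO. IC50s fitted by nonlinear sigmoidal regression.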

[1] = read-out: IC50 data for Compounds of Formulae I-V/V(a): Activity
[2] = read-out: IC50 data for Additional Compounds of Formulae I-V(a): Activity

T1 sequence (P49327 whole entry): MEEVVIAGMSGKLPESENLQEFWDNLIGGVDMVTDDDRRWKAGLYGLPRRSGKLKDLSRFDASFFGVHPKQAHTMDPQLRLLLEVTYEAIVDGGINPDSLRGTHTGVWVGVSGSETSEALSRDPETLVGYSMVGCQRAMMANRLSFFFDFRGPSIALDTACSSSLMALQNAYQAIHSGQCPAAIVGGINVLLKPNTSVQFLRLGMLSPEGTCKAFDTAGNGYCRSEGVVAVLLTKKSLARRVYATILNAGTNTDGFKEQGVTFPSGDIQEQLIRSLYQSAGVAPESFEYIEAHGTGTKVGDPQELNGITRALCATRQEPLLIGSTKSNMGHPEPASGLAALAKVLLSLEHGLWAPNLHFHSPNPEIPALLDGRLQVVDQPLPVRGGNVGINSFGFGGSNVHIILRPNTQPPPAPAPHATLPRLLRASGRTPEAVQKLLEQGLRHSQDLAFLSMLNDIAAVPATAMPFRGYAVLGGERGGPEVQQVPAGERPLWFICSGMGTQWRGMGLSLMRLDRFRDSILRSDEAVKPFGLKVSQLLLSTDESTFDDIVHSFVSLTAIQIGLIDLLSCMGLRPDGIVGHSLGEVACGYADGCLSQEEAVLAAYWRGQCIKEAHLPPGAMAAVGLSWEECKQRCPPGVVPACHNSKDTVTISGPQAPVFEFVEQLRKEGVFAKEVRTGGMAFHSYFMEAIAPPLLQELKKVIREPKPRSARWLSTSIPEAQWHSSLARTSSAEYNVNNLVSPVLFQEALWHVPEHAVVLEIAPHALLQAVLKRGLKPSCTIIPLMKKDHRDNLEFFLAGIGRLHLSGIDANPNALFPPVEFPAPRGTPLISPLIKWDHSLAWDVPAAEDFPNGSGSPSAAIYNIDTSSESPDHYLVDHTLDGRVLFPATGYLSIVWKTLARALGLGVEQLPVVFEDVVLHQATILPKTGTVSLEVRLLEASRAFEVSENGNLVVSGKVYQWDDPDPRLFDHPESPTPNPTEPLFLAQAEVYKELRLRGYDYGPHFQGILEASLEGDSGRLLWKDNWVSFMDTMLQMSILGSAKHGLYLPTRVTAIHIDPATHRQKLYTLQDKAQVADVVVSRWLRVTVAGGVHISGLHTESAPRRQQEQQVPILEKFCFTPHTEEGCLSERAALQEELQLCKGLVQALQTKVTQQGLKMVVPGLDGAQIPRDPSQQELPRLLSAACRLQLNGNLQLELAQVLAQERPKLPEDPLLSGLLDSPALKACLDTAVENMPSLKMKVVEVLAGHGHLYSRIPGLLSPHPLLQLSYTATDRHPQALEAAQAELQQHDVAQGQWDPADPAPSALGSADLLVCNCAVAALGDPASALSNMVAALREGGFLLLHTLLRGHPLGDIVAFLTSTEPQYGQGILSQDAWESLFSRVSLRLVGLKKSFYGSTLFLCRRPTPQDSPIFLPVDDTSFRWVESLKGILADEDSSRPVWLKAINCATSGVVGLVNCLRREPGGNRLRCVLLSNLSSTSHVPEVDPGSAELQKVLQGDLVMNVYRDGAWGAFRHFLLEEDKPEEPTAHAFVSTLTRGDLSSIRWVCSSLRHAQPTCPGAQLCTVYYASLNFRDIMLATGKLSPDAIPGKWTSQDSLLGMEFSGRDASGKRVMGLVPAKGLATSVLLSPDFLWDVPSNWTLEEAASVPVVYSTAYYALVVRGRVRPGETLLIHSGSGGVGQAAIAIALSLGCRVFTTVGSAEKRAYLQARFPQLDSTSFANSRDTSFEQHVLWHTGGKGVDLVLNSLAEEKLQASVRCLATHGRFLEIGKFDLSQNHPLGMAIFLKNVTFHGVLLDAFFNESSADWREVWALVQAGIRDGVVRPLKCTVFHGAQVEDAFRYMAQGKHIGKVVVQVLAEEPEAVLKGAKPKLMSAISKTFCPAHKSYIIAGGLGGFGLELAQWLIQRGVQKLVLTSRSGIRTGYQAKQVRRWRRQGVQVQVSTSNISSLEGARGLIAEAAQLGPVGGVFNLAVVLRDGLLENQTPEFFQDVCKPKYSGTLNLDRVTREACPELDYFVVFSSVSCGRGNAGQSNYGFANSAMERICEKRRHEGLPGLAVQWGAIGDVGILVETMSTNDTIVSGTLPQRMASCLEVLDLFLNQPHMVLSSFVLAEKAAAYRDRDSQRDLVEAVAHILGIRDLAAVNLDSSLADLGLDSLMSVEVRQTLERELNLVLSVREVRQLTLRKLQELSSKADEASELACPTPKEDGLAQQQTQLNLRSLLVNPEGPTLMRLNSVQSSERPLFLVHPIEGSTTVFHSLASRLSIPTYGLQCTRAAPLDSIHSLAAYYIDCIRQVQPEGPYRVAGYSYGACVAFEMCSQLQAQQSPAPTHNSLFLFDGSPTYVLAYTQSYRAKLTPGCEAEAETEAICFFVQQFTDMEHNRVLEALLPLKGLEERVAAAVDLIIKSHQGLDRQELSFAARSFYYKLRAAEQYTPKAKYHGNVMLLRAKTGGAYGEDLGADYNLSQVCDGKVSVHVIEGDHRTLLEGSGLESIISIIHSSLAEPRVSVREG

| Structure (SMILES) | IC50 [1] [nM] | IC50 [2] [nM] |
| --- | --- | --- |
| Cc1cccc2cc(-c3ccc(OC4CCN(C(=O)[C@H]5CCCO5)CC4)cc3)cnc12 [Example 488, {4-[4-(8-Methylquinolin-3-yl)-phenoxy]-piperidin-1-yl}-(R)-tetrahydro-furan-2-yl-methanone] | 1 to 99 |  |
| O=C(C1CC1)N1CCC(Oc2ccc(-c3cnc4sccc4c3)cc2)CC1 [Example 255, Cyclopropyl-[4-(4-thieno[2,3-b]pyridin-5-yl-phenoxy)-piperidin-1-yl]-methanone, TFA salt] | 1 to 99 |  |
| CS(=O)(=O)CC(=O)N1CCC(Oc2ccc(-c3cnc4ccccc4c3)cc2)CC1 [Example 117, 2-Methanesulfonyl-1-[4-(4-quinolin-3-yl-phenoxy)-piperidin-1-yl]-ethanone, HCl] | 1000 to 10000 |  |
| CCC(=O)N1CCC(Oc2ccc(-c3ccc4c(C)nccc4c3C)cc2)CC1 [Example 472, 1-[4-[4-(1,5-Dimethyl-6-isoquinolyl)phenoxy]-1-piperidyl]propan-1-one HCl] | 100 to 999 |  |
| O=C(C1CCC1)N1CCC(Oc2ccc(-c3cc4ccccc4cn3)cc2)CC1 [Example 45, Cyclobutyl-[4-(4-isoquinolin-3-yl-phenoxy)-piperidin-1-yl]-methanone] | 1 to 99 |  |
| CCCNC(=O)N1CCC(Oc2ccc(-c3ccn4ccnc4c3C)cc2)CC1 [Example 631, 4-[4-(8-Methylimidazo[1,2-a]pyridin-7-yl)phenoxy]-N-propyl-piperidine-1-carboxamide, HCl] |  | 1 to 99 |
| COc1cc(-c2cnc3ccccc3c2)ccc1OC1CCN(C(=O)C2CC2)CC1 [Example 198, Cyclopropyl-[4-(2-methoxy-4-quinolin-3-yl-phenoxy)-piperidin-1-yl]-methanone] | 1000 to 10000 |  |
| COc1c(-c2ccc(OC3CCN(C(=O)[C@H]4CCCO4)CC3)c(F)c2)ccc2cccnc12 [Example 221, {4-[2-Fluoro-4-(8-methoxyquinolin-7-yl)-phenoxy]-piperidin-1-yl}-(R)-tetrahydrofuran-2-yl-methanone] | 1 to 99 |  |
| CNC(=O)N1CCC(Oc2ccc(-c3ccc4cccnc4c3C)cc2)CC1 [Example 95, N-methyl-4-[4-(8-methyl-7-quinolyl)phenoxy]piperidine-1-carboxamide] | 1 to 99 |  |
| Cc1c(-c2ccc(OC3CCN(C(N)=O)CC3)cc2)ccc2cccnc12 [Example 97, 4-[4-(8-methyl-7-quinolyl)phenoxy]piperidine-1-carboxamide] | 100 to 999 |  |
| COc1c(-c2ccc(OC3CCN(C(=O)N4CCCO4)CC3)cc2)ccc2cccnc12 [Example 79, Isoxazolidin-2-yl-{4-[4-(8-methoxyquinolin-7-yl)-phenoxy]-piperidin-1-yl}-methanone] | 1 to 99 |  |
| Cc1c(-c2ccc(OC3CCN(C(=O)[C@H]4CCCO4)CC3)cc2)ccc2nccn12 [Example 285, {4-[4-(5-Methylimidazo[1,2-a]pyridin-6-yl)-phenoxy]-piperidin-1-yl}-(R)-tetrahydrofuran-2-yl-methanone] | 1 to 99 |  |
| O=C(C1CC1)N1CCC(Oc2ccc(-c3ccc(Nc4ccccc4)nc3)cc2)CC1 [Example 393, Cyclopropyl-{4-[4-(6-phenylaminopyridin-3-yl)-phenoxy]-piperidin-1-yl}-methanone, TFA salt] | 1000 to 10000 |  |
| Cc1cc(-c2ccc(OC3CCN(C(=O)C4CC4)CC3)cc2)c2cccnc2c1 [Example 349, Cyclopropyl-{4-[4-(7-methyl-quinolin-5-yl)-phenoxy]-piperidin-1-yl}-methanone, HCl] | 1 to 99 |  |
| CC(C)C(=O)N1CCC(Oc2ccc(-c3ccc(C#N)cc3)cc2)CC1 [Example 494, 4′-(1-Isobutyrylpiperidin-4-yloxy)-biphenyl-4-carbonitrile] | 1000 to 10000 |  |
| CCC(=O)N1CCC(Oc2ccc(-c3ccc4cccnc4c3)cn2)CC1 [Example 135, 1-[4-(5-Quinolin-7-yl-pyridin-2-yloxy)-piperidin-1-yl]-propan-1-one, HCl] | 100 to 999 |  |
| Cc1c(-c2ccc(OC3CCN(C(=O)[C@H]4CCCN4C)CC3)cc2)ccc2cccnc12 [Example 616, [(2R)-1-Methylpyrrolidin-2-yl]-[4-[4-(8-methyl-7-quinolyl)phenoxy]-1-piperidyl]methanone] |  | 1000 to 10000 |
